Test results as given in patent US20250215030A1, “STAT MODULATORS AND USES THEREOF” (Recludix Pharma, Inc., priority 2022, published 2025).

These compounds were tested against T1, pSTAT3 (pY705-STAT3) (Homo sapiens, UniProt P40763) (assay: MSD-pSTAT-PBMC Assay (pSTAT3, IL-6 stimulated)). Settings: not given.
T1 construct: host or cells: cryopreserved PBMC
Format: cell-based
Source text: Cryopreserved Peripheral Blood Mononuclear Cells (PBMC) are from AllCells. Recombinant Human IL-4 and IL-6 are from Peprotech. Mouse monoclonal anti-STAT3 antibody, rabbit monoclonal anti-pY705-STAT3 antibody, rabbit monoclonal Anti-pY641-STAT6 antibody, and lysis buffer are from Cell Signaling Technology (CST). Mouse monoclonal anti-STAT6 antibody is from BioLegend. Assay plates, blocker, and anti-rabbit secondary antibody are from Meso Scale Discovery (MSD).
Cryopreserved PBMCs were thawed out and allowed to recover overnight in IMDM+10% heat-inactivated FBS prior to plating 50,000 (STAT3) or 25,000 (STAT6) cells per well in 96-well U-bottom tissue culture plates. Cells were treated with compound for 3 hrs, then stimulated with 10 ng/mL IL-6 (STAT3) or 1 ng/mL IL-4 (STAT6) for 10 min. Cells were then spun down and washed with ice-cold PBS prior to lysing the cell pellet with 1× lysis buffer (CST) with 1× HALT protease and phosphatase inhibitor cocktail (Thermo). Lysates were transferred to and incubated overnight at 4° C. with shaking in QuickPlex 96-well high bind assay plates (MSD) pre-coated overnight with 30 μL per well of 0.6 μg/mL mouse monoclonal anti-STAT3 antibody (STAT3) or 2 μg/mL mouse monoclonal anti-STAT6 antibody (STAT6) in 1×PBS, and pre-blocked for 1 hour with 3% Blocker-A (MSD). Captured protein in the assay plates were then washed and probed with 25 μL per well of 0.25 μg/ml rabbit monoclonal anti-pY705-STAT3 antibody (STAT3) or 0.18 μg/ml rabbit monoclonal Anti-pY641-STAT6 antibody (STAT6) in 1% Blocker-A for 1 hour at room temperature with shaking, then washed and probed with 25 ul per well of 1 ug/mi Sulfo-TAG Labeled Goat Anti-Rabbit Antibody (MSD) in 1% Blocker-A for 1 hour at room temperature with shaking. Assay plates were then washed and 150 μL of 1× Read Buffer-T (MSD) was added to each well prior to reading on an SQ120 MSD Plate Reader. Assay signal from each sample was subtracted by the signal from unstimulated control wells and normalized to DMSO control wells. IC50 values were calculated using Graph Pad Prism Dose-Response Nonlinear Regression with variable slope. For both pSTAT3 and pSTAT6 A=≤100 nM; B=>100-1000 nM; C=>1000-3000 nM; and D=>3 μM.

T1 sequence (P40763 whole entry): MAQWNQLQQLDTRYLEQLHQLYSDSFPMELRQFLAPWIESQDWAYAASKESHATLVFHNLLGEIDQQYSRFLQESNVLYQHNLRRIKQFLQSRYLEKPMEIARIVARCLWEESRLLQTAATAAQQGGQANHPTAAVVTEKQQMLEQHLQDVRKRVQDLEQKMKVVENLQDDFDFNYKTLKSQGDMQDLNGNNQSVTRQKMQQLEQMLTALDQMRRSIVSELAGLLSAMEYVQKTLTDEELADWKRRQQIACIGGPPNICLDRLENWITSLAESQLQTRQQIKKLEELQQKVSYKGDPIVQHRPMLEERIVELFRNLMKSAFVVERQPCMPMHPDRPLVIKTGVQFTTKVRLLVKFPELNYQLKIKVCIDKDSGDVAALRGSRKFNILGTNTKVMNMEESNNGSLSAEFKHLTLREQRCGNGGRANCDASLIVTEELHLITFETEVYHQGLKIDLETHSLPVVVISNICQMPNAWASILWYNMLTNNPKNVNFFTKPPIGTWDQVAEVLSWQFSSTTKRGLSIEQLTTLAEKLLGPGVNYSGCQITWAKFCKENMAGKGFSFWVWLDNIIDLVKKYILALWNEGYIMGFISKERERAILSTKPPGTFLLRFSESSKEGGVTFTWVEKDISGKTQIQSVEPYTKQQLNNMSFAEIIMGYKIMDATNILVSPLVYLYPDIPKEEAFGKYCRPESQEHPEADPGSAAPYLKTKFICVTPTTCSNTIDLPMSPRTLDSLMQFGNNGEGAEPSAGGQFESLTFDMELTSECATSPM

Row | Compound | IC50 [µM]
1 | O=C(N[C@H]1C[C@@H]2C[C@@H]2C[C@H]2CC[C@@H](C(=O)N3CC(C(=O)N4CCOCC4)C3)N2C1=O)c1cc2cc(C(F)(F)P(=O)(N[C@@H](CCc3ccccc3)C(=O)OCc3ccccc3)Oc3ccccc3)ccc2s1 (stereo partly drawn) [Compound 159, benzyl (2S)-2-(((difluoro(2-(((3S,6S,7aS, 8aR,9aR)-3-(3-(morpholine-4-carbonyl)azetidine-1-carbonyl)-5-oxodecahydro-1H-cyclopropa[d]pyrrolo[1,2-a]azocin-6-yl)carbamoyl)benzo[b]thiophen-5-yl)methyl) (phenoxy)phosphoryl)amino)-4-phenylbutanoate] | > 3

Same assay, conditions: PBMC, compound 3 hrs, then 10 ng/mL IL-6 for 10 min; MSD pY705-STAT3; read-out: pSTAT3

Row | Compound | IC50 [µM]
2 | CC(C)OC(=O)[C@H](Cc1ccccc1)NP(=O)(Cc1ccc2sc(C(=O)N[C@H]3C[C@@H]4C[C@@H]4C[C@H]4CC[C@@H](C(=O)N5CC(C(=O)N6CCOCC6)C5)N4C3=O)cc2c1)Oc1ccccc1 (stereo partly drawn) [Compound 134, isopropyl (((2-(((3S,6S,7aS, 8aR,9aR)-3-(3-(morpholine-4-carbonyl)azetidine-1-carbonyl)-5-oxodecahydro-1H-cyclopropa[d]pyrrolo[1,2-a]azocin-6-yl)carbamoyl)benzo[b]thiophen-5-yl)methyl) (phenoxy)phosphoryl)-L-phenyl-alaninate] | 0.1 to 1
3 | CC(C)OC(=O)[C@H](C)NP(=O)(Cc1ccc2sc(C(=O)N[C@H]3C[C@@H]4C[C@@H]4C[C@H]4CC[C@@H](C(=O)N5CC(C(=O)N6CCOCC6)C5)N4C3=O)cc2c1)N[C@@H](C)C(=O)OC(C)C [Compound 147, diisopropyl 2,2′-((((2-(((3S,6S,7aS, 8aR,9aR)-3-(3-(morpholine-4-carbonyl)azetidine-1-carbonyl)-5-oxodecahydro-1H-cyclopropa[d]pyrrolo[1,2-a]azocin-6-yl)carbamoyl)benzo[b]thiophen-5-yl)methyl)phosphoryl)bis(azanediyl)) (2S,2′S)-dipropionate] | > 3
4 | CC(C)OC(=O)[C@H](C)NP(=O)(Oc1ccccc1)C(F)c1ccc2sc(C(=O)N[C@H]3C[C@@H]4C[C@@H]4C[C@H]4CC[C@@H](C(=O)N5CC(C(=O)N6CCOCC6)C5)N4C3=O)cc2c1 (stereo partly drawn) [Compound 153, isopropyl ((fluoro(2-(((3S,6S,7aS, 8aR,9aR)-3-(3-(morpholine-4-carbonyl)azetidine-1-carbonyl)-5-oxodecahydro-1H-cyclopropa[d]pyrrolo[1,2-a]azocin-6-yl)carbamoyl)benzo[b]thiophen-5-yl)methyl)phenoxy) phosphoryl)-L-alaninate] | 0.1 to 1
5 | CCOC(=O)[C@H](C)NC(=O)OCOP(=O)(Cc1ccc2sc(C(=O)N[C@H]3C[C@@H]4C[C@@H]4C[C@H]4CC[C@@H](C(=O)N5CC(C(=O)N6CCOCC6)C5)N4C3=O)cc2c1)OCOC(=O)N[C@@H](C)C(=O)OCC [Compound 160, diethyl 2,2′-((((((((2-(((3S, 6S,7aS,8aR, 9aR)-3-(3-(morpholine-4-carbonyl)azetidine-1-carbonyl)-5-oxodecahydro-1H-cyclopropa [d]pyrrolo[1,2-a]azocin-6-yl)carbamoyl)benzo[b]thiophen-5-yl)methyl)phosphoryl)bis(oxy))bis(methylene))bis(oxy))bis(carbonate))bis(azanediyl)) (2S,2′S)-dipropionate] | > 3
6 | CC(C)C[C@H](NP(=O)(Oc1ccccc1)C(F)(F)c1ccc2sc(C(=O)N[C@H]3C[C@@H]4C[C@@H]4C[C@H]4CC[C@@H](C(=O)N5CC(C(=O)N6CCOCC6)C5)N4C3=O)cc2c1)C(=O)OCc1ccccc1 (stereo partly drawn) [Compound 163, benzyl ((difluoro(2-(((3S,6S,7aS, 8aR,9aR)-3-(3-(morpholine-4-carbonyl)azetidine-1-carbonyl)-5-oxodecahydro-1H-cyclopropa[d]pyrrolo[1,2-a]azocin-6-yl)carbamoyl)benzo[b]thiophen-5-yl)methyl) (phenoxy)phosphoryl)-L-leucinate] | 1 to 3
7 | CC(C)CC(=O)SCCOP(=O)(N[C@@H](C)C(=O)OCc1ccccc1)C(F)(F)c1ccc2sc(C(=O)N[C@H]3C[C@@H]4C[C@@H]4C[C@H]4CC[C@@H](C(=O)N5CC(C(=O)N6CCOCC6)C5)N4C3=O)cc2c1 (stereo partly drawn) [Compound 164, benzyl ((difluoro(2-(((3S,6S,7aS, 8aR,9aR)-3-(3-(morpholine-4-carbonyl)azetidine-1-carbonyl)-5-oxodecahydro-1H-cyclopropa [d]pyrrolo[1,2-a]azocin-6-yl)carbamoyl)benzo[b]thiophen-5-yl)methyl)(2-((3-methyl-butanoyl)thio)ethoxy)phosphoryl)-L-alaninate] | > 3
8 | CC(C)OC(=O)[C@H](Cc1ccccc1)OP(=O)(Oc1ccccc1)C(F)(F)c1ccc2sc(C(=O)N[C@H]3C[C@@H]4C[C@@H]4C[C@H]4CC[C@@H](C(=O)N5CC(C(=O)N6CCOCC6)C5)N4C3=O)cc2c1 (stereo partly drawn) [Compound 167, isopropyl (2S)-2-(((difluoro(2-(((3S,6S,7aS, 8aR,9aR)-3-(3-(morpholine-4-carbonyl)azetidine-1-carbonyl)-5-oxodecahydro-1H-cyclopropa[d]pyrrolo[1,2-a]azocin-6-yl)carbamoyl)benzo[b]thiophen-5-yl)methyl) (phenoxy)phosphoryl)oxy)-3-phenyl-propanoate] | > 3
9 | C[C@H](OP(=O)(Oc1ccccc1)C(F)(F)c1ccc2sc(C(=O)N[C@H]3C[C@@H]4C[C@@H]4C[C@H]4CC[C@@H](C(=O)N5CC(C(=O)N6CCOCC6)C5)N4C3=O)cc2c1)C(=O)OCc1ccccc1 (stereo partly drawn) [Compound 174, benzyl (2S)-2-(((difluoro(2-(((3S,6S,7aS, 8aR,9aR)-3-(3-(morpholine-4-carbonyl)azetidine-1-carbonyl)-5-oxodecahydro-1H-cyclopropa[d]pyrrolo[1,2-a]azocin-6-yl)carbamoyl)benzo[b]thiophen-5-yl)methyl) (phenoxy)phosphoryl)oxy) propanoate] | 1 to 3
10 | CC(C)OC(=O)[C@H](C)NP(=O)(Cc1ccc2sc(C(=O)N[C@H]3C[C@@H]4C[C@@H]4C[C@H]4CC[C@@H](C(=O)N5CC(C(=O)N6CCOCC6)C5)N4C3=O)cc2c1)Oc1ccccc1Cl (stereo partly drawn) [Compound 191, isopropyl ((2-chlorophenoxy) ((2-(((3S,6S, 7aS,8aR,9aR)-3-(3-(morpholine-4-carbonyl)azetidine-1-carbonyl)-5-oxodecahydro-1H-cyclopropa[d]pyrrolo[1,2-a]azocin-6-yl)carbamoyl)benzo[b]thiophen-5-yl)methyl)phosphoryl)-L-alaninate] | 0.1 to 1
11 | CCOC(=O)[C@H](C)NP(=O)(Oc1ccccc1)C(F)(F)c1ccc2sc(C(=O)N[C@H]3C[C@@H]4C[C@@H]4C[C@H]4CC[C@@H](C(=O)N5CC(C(=O)N6CCOCC6)C5)N4C3=O)cc2c1 (stereo partly drawn) [Compound 192, ethyl ((difluoro(2-(((3S,6S,7aS, 8aR,9aR)-3-(3-(morpholine-4-carbonyl)azetidine-1-carbonyl)-5-oxodecahydro-1H-cyclopropa[d]pyrrolo[1,2-a]azocin-6-yl)carbamoyl)benzo[b]thiophen-5-yl)methyl) (phenoxy)phosphoryl)-L-alaninate] | > 3
12 | CC(C)OC(=O)COP(=O)(Oc1ccccc1)C(F)(F)c1ccc2sc(C(=O)N[C@H]3C[C@@H]4C[C@@H]4C[C@H]4CC[C@@H](C(=O)N5CC(C(=O)N6CCOCC6)C5)N4C3=O)cc2c1 (stereo partly drawn) [Compound 194, isopropyl 2-(((difluoro(2-(((3S,6S,7aS, 8aR,9aR)-3-(3-(morpholine-4-carbonyl)azetidine-1-carbonyl)-5-oxodecahydro-1H-cyclopropa[d]pyrrolo[1,2-a]azocin-6-yl)carbamoyl)benzo[b]thiophen-5-yl)methyl) (phenoxy)phosphoryl)oxy) acetate] | 0.1 to 1
13 | CC(C)OC(=O)[C@H](C)NP(=O)(Cc1ccc2sc(C(=O)N[C@H]3C[C@@H]4C[C@@H]4C[C@H]4CC[C@@H](C(=O)N5CC(C(=O)N6CCOCC6)C5)N4C3=O)cc2c1)OCC(F)(F)F (stereo partly drawn) [Compound 200, isopropyl (((2-(((3S,6S,7aS, 8aR,9aR)-3-(3-(morpholine-4-carbonyl)azetidine-1-carbonyl)-5-oxodecahydro-1H-cyclopropa [d]pyrrolo[1,2-a]azocin-6-yl)carbamoyl)benzo[b]thiophen-5-yl)methyl) (2,2,2-trifluoroethoxy)phosphoryl)-L-alaninate] | 0.1 to 1
